Test results published in ChEMBL document CHEMBL1201862, “PubChem BioAssay data set” (2004).
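Compound exposure: 48 hours, 5 concentrations, 96-well plates. At the GI50, growth is halved.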 Activity calls are given as the source filed them. Cut-off read from the data, not from the text of the source: active = GI50 up to about 1.1 µM and inactive = higher.

Key:
Assay in all cases: NCI-60 cell line screen, 48 h
HOP-62 = test system: HOP-62
Malme-3M = test system: Malme-3M
HCT-116 = test system: HCT-116
TK-10 = test system: TK-10
RXF 393 = test system: RXF 393
SF-268 = test system: SF-268
HT-29 = test system: HT-29
NCI-H23 = test system: NCI-H23
U-251 = test system: U-251
LOX IMVI = test system: LOX IMVI
HCT-15 = test system: HCT-15
SF-539 = test system: SF-539
MOLT-4 = test system: MOLT-4
SN12C = test system: SN12C
SW-620 = test system: SW-620
SNB-75 = test system: SNB-75
EKVX = test system: EKVX
SF-295 = test system: SF-295
NCI-H522 = test system: NCI-H522

Structure (SMILES)	GI50 (HOP-62)	GI50 (Malme-3M)	GI50 (HCT-116)	GI50 (TK-10)	GI50 (RXF 393)	GI50 (SF-268)	GI50 (HT-29)	GI50 (NCI-H23)	GI50 (U-251)	GI50 (LOX IMVI)	GI50 (HCT-15)	GI50 (SF-539)	GI50 (MOLT-4)	GI50 (SN12C)	GI50 (SW-620)	GI50 (SNB-75)	GI50 (EKVX)	GI50 (SF-295)	GI50 (NCI-H522)
CC(/C=C/C(O)=C1/C(=O)CNC1=O)=C\[C@@H](C)[C@H]1O[C@@]2(C)O[C@H](C(=O)[C@@H]3O[C@@]32C)[C@@H]1C	22.2 µM (inactive)	18.1 µM (inactive)	18.9 µM (inactive)	19.2 µM (inactive)	1.14 µM (inactive)	21.1 µM (inactive)	21.9 µM (inactive)	23.5 µM (inactive)	19.5 µM (inactive)	14.5 µM (inactive)	18.4 µM	18.7 µM (inactive)	14.7 µM (inactive)	20.3 µM (inactive)	29.8 µM (inactive)	34.8 µM (inactive)	17.7 µM (inactive)		
O=C(c1ccccc1)N1C(=S)NC(=N/c2ccccc2)/C1=N\c1ccccc1	> 100 µM (inactive)	> 100 µM (inactive)	> 100 µM (inactive)	> 100 µM (inactive)	33.9 µM (inactive)	> 100 µM (inactive)	> 100 µM (inactive)	> 100 µM (inactive)	> 100 µM (inactive)	> 100 µM (inactive)	> 100 µM	> 100 µM (inactive)	> 100 µM (inactive)	> 100 µM (inactive)	> 100 µM (inactive)	> 100 µM (inactive)	> 100 µM (inactive)	> 100 µM (inactive)	> 100 µM (inactive)
O=S(=O)(O)c1cc(S(=O)(=O)O)c2c(Nc3ccnc4ccccc34)ccc(S(=O)(=O)O)c2c1	> 100 µM (inactive)	> 100 µM (inactive)	> 100 µM (inactive)	> 100 µM (inactive)	> 100 µM (inactive)	> 100 µM (inactive)	> 100 µM (inactive)	> 100 µM (inactive)	> 100 µM (inactive)	> 100 µM (inactive)	> 100 µM	> 100 µM (inactive)	> 100 µM (inactive)	> 100 µM (inactive)	> 100 µM (inactive)	> 100 µM (inactive)	> 100 µM (inactive)	> 100 µM (inactive)	> 100 µM (inactive)
OCC1OC(c2n[nH]c3c(O)ncnc23)C(O)C1O (centres undefined)	9.79 µM (inactive)	16.1 µM (inactive)	7.28 µM (inactive)		58.6 µM (inactive)		11.9 µM (inactive)	32.4 µM (inactive)	47.9 µM (inactive)	3.92 µM (inactive)	6.03 µM	26 µM (inactive)	5.37 µM (inactive)	10.3 µM (inactive)	4.17 µM (inactive)	> 100 µM (inactive)	28 µM (inactive)	33.1 µM (inactive)	10.2 µM (inactive)
COC1=CC(=O)c2c(cc(COP(N)(=O)N(CCBr)CCBr)n2C)C1=O (centres undefined)		0.308 µM (active)	< 0.01 µM (active)	0.484 µM (active)	0.0719 µM (active)	< 0.01 µM (active)	0.012 µM (active)	< 0.01 µM (active)	< 0.01 µM (active)	< 0.01 µM (active)	0.242 µM	< 0.01 µM (active)	< 0.01 µM (active)	< 0.01 µM (active)	< 0.01 µM (active)	< 0.01 µM (active)	0.0212 µM (active)	< 0.01 µM (active)	< 0.01 µM (active)
O=C(c1cccs1)N1CCCN(C(=O)c2cccs2)C1=S	26.2 µM (inactive)	> 100 µM (inactive)	> 100 µM (inactive)	> 100 µM (inactive)	36.1 µM (inactive)	> 100 µM (inactive)	> 100 µM (inactive)	> 100 µM (inactive)	> 100 µM (inactive)	> 100 µM (inactive)	> 100 µM	> 100 µM (inactive)	> 100 µM (inactive)	> 100 µM (inactive)	> 100 µM (inactive)		52.2 µM (inactive)	> 100 µM (inactive)	
Cn1c(=O)nc2n(-c3cccc(Br)c3)c3ccccc3nc-2c1=O	14.8 µM (inactive)	2.71 µM (inactive)	4.35 µM (inactive)	11.3 µM (inactive)	11.5 µM (inactive)	8.91 µM (inactive)	2.82 µM (inactive)	1.61 µM (inactive)	5.01 µM (inactive)		4.06 µM	5.42 µM (inactive)		4.78 µM (inactive)	2.61 µM (inactive)	9.82 µM (inactive)	3.79 µM (inactive)	5.73 µM (inactive)	6.62 µM (inactive)
